This note sets out measurements from US8809498B2, “Pepstatin A derivatives” (priority 2008, dated 2014).

Common to all, as to format: biochemical
One experiment addresses Sap3 of Candida albicans (Candida albicans, UniProt P0CY29). The experiment is described as follows: Inhibition of proteolytic activity of Sap3 (resorufin-marked casein, fluorescence). The procedure:
(§1) For this purpose, that inhibitor concentration was determined in vitro at which the proteolytic activity of the enzyme or its velocity of metabolizing a substrate, respectively, was reduced for 50%.
(§2) The proteolytic activity of the tested Saps was determined at the pH optimum of those Saps. Resorufin-marked casein was used as substrate. Proteolysis of casein can be detected by an increase in fluorescence due to released resorufin (a fluorescence marker) by proteolysis.
(§3) Sap1, Sap3 and Sap6 of Candida albicans were independently dissolved in 2-(N-morpholino)ethanesulfonic acid (MES) having a concentration of 10 mmol/l and a pH of 6.5 resulting in enzyme solutions having a Sap concentration of 100 mmol/l. After one hour incubation at room temperature, 80 μl of a substrate solution comprising resorufin-marked casein in a sodium citrate buffer having a concentration of 500 mmol/l and a pH of 3.5 (in case of Sap3), 4.5 (in case of Sap1) and 5.0 (in case of Sap6) were added to 20 μl of enzyme solution. The resulting Sap concentration was 5 nmol/l. The resulting casein concentration was chosen such that the Saps could work in excess of substrate. Different Sap inhibitors were added, resulting in a final inhibitor concentration of 1 nmol/1, 2 nmol/1, 5 nmol/1, 10 nmol/l, nmol/l or 50 nmol/l in each case. One enzyme-substrate sample was left without addition of inhibitor. All experiments were performed in triplicate.
(§4) The mixture of enzyme and substrate or of enzyme, substrate and inhibitor was incubated at 37° C. under agitation at 300 rpm (rounds per minute) for 60 min in each case. Afterwards, 20 μl of a trichloroacetic acid solution (30%, w/v) were added. The mixture was placed on ice for 5 minutes and centrifuged afterwards for 3 min at 6000 rpm. The supernatant was removed.
(§5) To carry out fluorescence measurements, 100 μl of the supernatant were mixed with 100 μl Tris-HCl (trishydroxymethylaminomethane-HCl) having a concentration of 1 mol/l and a pH of 10.0. The fluorescence of this mixture was measured directly after adding Tris-HCl using an excitation wavelength of 530 nm and an emission wavelength of 590 nm on a CytoFluor 2350 apparatus (Millipore, Bedford, Mass., USA), wherein sensitivity was set to 2 and bandwidth was set to 7.
(§6) The average of three independent fluorescence measurements was calculated. The fluorescence of enzyme without inhibitor (i.e. inhibitor concentration of 0 nmol/l) was set to 100% enzyme activity. The activity of inhibited enzyme was calculated accordingly from the fluorescence of inhibited enzyme with respect to fluorescence of enzyme without inhibitor. Finally, the enzyme activity was plotted against the inhibitor concentration and the IC50 value was determined.

In the next experiment the target is Sap6 of Candida albicans (Candida albicans, UniProt Q5AC08). The experiment is described as follows: Inhibition of proteolytic activity of Sap6 (resorufin-marked casein, fluorescence). The procedure: as §1, §2, §3, §4, §5, §6
Sequence of Sap6 of Candida albicans (Q5AC08 77-418): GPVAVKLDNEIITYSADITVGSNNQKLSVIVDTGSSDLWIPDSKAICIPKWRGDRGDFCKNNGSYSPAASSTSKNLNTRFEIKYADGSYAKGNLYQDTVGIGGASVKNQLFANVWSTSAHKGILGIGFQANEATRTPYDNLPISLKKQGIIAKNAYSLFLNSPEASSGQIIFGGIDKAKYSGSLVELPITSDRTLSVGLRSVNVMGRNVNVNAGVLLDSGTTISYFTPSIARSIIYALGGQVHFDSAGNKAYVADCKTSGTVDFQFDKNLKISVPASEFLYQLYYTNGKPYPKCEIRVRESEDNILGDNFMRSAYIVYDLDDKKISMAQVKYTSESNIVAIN
The target of the next experiment is Sap1 of Candida albicans (Candida albicans, UniProt P0CY27). The experiment is described as follows: Inhibition of proteolytic activity of Sap1 (resorufin-marked casein, fluorescence). The following applies: for effectiveness against Sap1 compared with pepstatin A: versus pepstatin A. The procedure: as §1, §2, §3, §4, §5, §6
Sequence of Sap1 of Candida albicans (P0CY27 51-391): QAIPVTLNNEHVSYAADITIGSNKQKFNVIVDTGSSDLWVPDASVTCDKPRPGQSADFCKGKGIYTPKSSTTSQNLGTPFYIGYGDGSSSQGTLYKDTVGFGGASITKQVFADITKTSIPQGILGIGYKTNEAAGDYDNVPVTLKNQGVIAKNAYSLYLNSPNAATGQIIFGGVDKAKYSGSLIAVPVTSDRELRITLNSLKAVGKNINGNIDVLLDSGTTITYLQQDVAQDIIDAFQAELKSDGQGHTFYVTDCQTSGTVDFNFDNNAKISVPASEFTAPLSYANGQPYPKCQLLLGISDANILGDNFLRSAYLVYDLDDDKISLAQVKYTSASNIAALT
The target of another experiment is Sap5 (Candida albicans, UniProt P43094). The experiment is described as follows: Inhibition of proteolytic activity of Sap5. The procedure:
as §1, §2, §4, §5, §6

Molecules are shown by their SMILES. Non-standard residues stand in square brackets, D forms with d. Residues, ends and D or L forms follow the SMILES beside them. *: point of attachment. Abu(4,4,4-F3) = N[C@@H](CC(F)(F)F)C(=O)O; Phe(4-F) = N[C@@H](Cc1ccc(F)cc1)C(=O)O; Phe(4-Me) = Cc1ccc(C[C@H](N)C(=O)O)cc1; Sta = CC(C)C[C@H](N)[C@@H](O)CC(=O)O; Isovaleryl = CC(C)CC(=O)*; Nle = CCCC[C@H](N)C(=O)O; Dab = NCC[C@H](N)C(=O)O Some results are limits rather than exact numbers.

Sequence of Sap3 of Candida albicans (P0CY29 59-398): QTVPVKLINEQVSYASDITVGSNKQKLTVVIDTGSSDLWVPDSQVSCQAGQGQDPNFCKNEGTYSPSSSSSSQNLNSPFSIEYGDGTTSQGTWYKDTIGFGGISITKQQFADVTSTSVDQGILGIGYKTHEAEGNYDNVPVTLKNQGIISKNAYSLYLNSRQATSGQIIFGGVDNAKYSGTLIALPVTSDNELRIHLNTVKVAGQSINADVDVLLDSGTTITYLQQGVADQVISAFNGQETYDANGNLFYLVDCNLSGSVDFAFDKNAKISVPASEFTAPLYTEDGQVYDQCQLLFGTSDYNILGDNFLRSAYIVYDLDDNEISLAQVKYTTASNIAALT
Sequence of Sap5 (P43094 77-418): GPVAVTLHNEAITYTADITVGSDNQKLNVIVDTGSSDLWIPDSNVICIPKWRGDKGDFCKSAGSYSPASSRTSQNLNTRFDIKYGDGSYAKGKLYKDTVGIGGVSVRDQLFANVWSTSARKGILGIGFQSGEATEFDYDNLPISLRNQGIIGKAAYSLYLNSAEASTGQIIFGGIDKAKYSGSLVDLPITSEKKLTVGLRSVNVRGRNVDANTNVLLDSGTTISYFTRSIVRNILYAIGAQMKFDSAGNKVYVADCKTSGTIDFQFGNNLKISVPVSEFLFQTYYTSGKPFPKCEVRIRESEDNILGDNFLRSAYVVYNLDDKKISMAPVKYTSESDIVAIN

Broadly, the IC50 is the midpoint of a concentration-inhibition curve. A low value points to higher potency. Take `CC(C)CC(=O)N[C@@H](Cc1ccccc1)C(=O)N[C@H](C(=O)N[C@@H](CC(C)C)[C@@H](O)CC(=O)N[C@@H](C)C(=O)N[C@@H](CC(C)C)[C@@H](O)CC(=O)O)C(C)C` [P3(Phe)-pepstatin, (N-Iva-Phe)-Val-Sta-Ala-Sta] (Isovaleryl-FV[Sta]A[Sta]-OH): the IC50 on Sap3 of Candida albicans was < 5 nM; on Sap6 of Candida albicans, ~10 nM; on Sap1 of Candida albicans, ~5 nM. For the same compound, the “effectiveness against Sap1 compared with pepstatin A” value at Sap1 of Candida albicans is reported as “more effective against Sap1 than pepstatin A itself”.

For the compound `CCCC[C@H](NC(=O)[C@H](Cc1ccccc1)NC(=O)CC(C)C)C(=O)N[C@@H](CC(C)C)[C@@H](O)CC(=O)N[C@@H](CCCCN)C(=O)N[C@@H](CC(C)C)[C@@H](O)CC(=O)O` [Compound K, (N-Iva-Phe)-Nle-Sta-Lys-Sta] (Isovaleryl-F[Nle][Sta]K[Sta]-OH), the IC50 against Sap3 of Candida albicans is 20 nM; against Sap5, ~5 nM; against Sap6 of Candida albicans, ~50 nM; at Sap1 of Candida albicans it was < 5 nM. Moreover, the “effect on Sap 5” value at Sap5 (versus pepstatin A) is reported as “increased effect on Sap 5”. Also, the “effectiveness against Sap1 compared with pepstatin A” value on Sap1 of Candida albicans is on record as “more effective against Sap1 than pepstatin A itself”.

As to `CC(C)CC(=O)N[C@H](C(=O)N[C@@H](CC(F)(F)F)C(=O)N[C@@H](CC(C)C)[C@@H](O)CC(=O)N[C@@H](C)C(=O)N[C@@H](CC(C)C)[C@@H](O)CC(=O)O)C(C)C` [P2(TfeGly)-pepstatin, (N-Iva-Val)-TfeGly-Sta-Ala-Sta] (Isovaleryl-V[Abu(4,4,4-F3)][Sta]A[Sta]-OH), the figures for the IC50 at Sap3 of Candida albicans, on Sap6 of Candida albicans and at Sap1 of Candida albicans were < 5 nM, ~20 nM and ~50 nM, respectively.

Consider `COc1ccc(C[C@H](NC(=O)CC(C)C)C(=O)N[C@H](C(=O)N[C@@H](CC(C)C)[C@@H](O)CC(=O)N[C@@H](C)C(=O)N[C@@H](CC(C)C)[C@@H](O)CC(=O)O)C(C)C)cc1` [P3(O—MeTyr)-pepstatin, (N-Iva-OMeTyr)-Val-Sta-Ala-Sta] (Isovaleryl-Y(Me)V[Sta]A[Sta]-OH), for which the values for the IC50 at Sap3 of Candida albicans, against Sap6 of Candida albicans and on Sap1 of Candida albicans were ~5 nM, ~10 nM and > 500 nM, respectively.

For `CC(C)CC(=O)N[C@H](C(=O)N[C@H](C(=O)N[C@@H](CC(C)C)[C@@H](O)CC(=O)N[C@@H](CCCCN)C(=O)N[C@@H](CC(C)C)[C@@H](O)CC(=O)O)C(C)C)C(C)C` [P1'(Lys)-pepstatin, (N-Iva-Val)-Val-Sta-Lys-Sta] (Isovaleryl-VV[Sta]K[Sta]-OH), the half-maximal inhibitory concentration (IC50) is < 5 nM on Sap3 of Candida albicans, ~7 nM against Sap6 of Candida albicans and < 5 nM at Sap1 of Candida albicans. The “concentration equally effective in inhibiting Sap1, fold less than that of amprenavir” value at Sap1 of Candida albicans (versus amprenavir) was determined as 1000 fold. In addition, at Sap1 of Candida albicans, the “effectiveness against Sap1 compared with pepstatin A” value was “more effective against Sap1 than pepstatin A itself”.

As for `CC(C)CC(=O)N[C@H](C(=O)N[C@H](C(=O)N[C@@H](CC(C)C)[C@@H](O)CC(=O)N[C@@H](CCN)C(=O)N[C@@H](CC(C)C)[C@@H](O)CC(=O)O)C(C)C)C(C)C` [P1'(Dab)-pepstatin, (N-Iva-Val)-Val-Sta-Dab-Sta] (Isovaleryl-VV[Sta][Dab][Sta]-OH), the half-inhibitory concentration (IC50) against Sap3 of Candida albicans was ~20 nM; at Sap6 of Candida albicans, > 500 nM; against Sap1 of Candida albicans it was ~400 nM. Also, the “specificity for Sap3” value on Sap3 of Candida albicans (versus Sap1 and Sap6) is reported as “very high specificity for Sap3”.

In the case of `CC(C)CC(=O)N[C@@H](Cc1ccc(F)cc1)C(=O)N[C@H](C(=O)N[C@@H](CC(C)C)[C@@H](O)CC(=O)N[C@@H](C)C(=O)N[C@@H](CC(C)C)[C@@H](O)CC(=O)O)C(C)C` [P3(p-FPhe)-pepstatin, (N-Iva-pFPhe)-Val-Sta-Ala-Sta] (Isovaleryl-[Phe(4-F)]V[Sta]A[Sta]-OH), the IC50 is < 5 nM against Sap3 of Candida albicans, ~10 nM at Sap6 of Candida albicans and < 5 nM on Sap1 of Candida albicans. For the same compound, the “effectiveness against Sap1 compared with pepstatin A” value on Sap1 of Candida albicans is “more effective against Sap1 than pepstatin A itself”.

Take `Cc1ccc(C[C@H](NC(=O)CC(C)C)C(=O)N[C@H](C(=O)N[C@@H](CC(C)C)[C@@H](O)CC(=O)N[C@@H](C)C(=O)N[C@@H](CC(C)C)[C@@H](O)CC(=O)O)C(C)C)cc1` [P3(MePhe)-pepstatin, (N-Iva-pMePhe)-Val-Sta-Ala-Sta] (Isovaleryl-[Phe(4-Me)]V[Sta]A[Sta]-OH): the IC50 against Sap3 of Candida albicans is ~5 nM; at Sap6 of Candida albicans, ~20 nM; at Sap1 of Candida albicans, ~10 nM.
